Measured values: PubChem BioAssay (NCI)
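Five concentrations, 48 hours, 96-well plates. TGI marks complete inhibition of growth.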

Experiments:
Assay in all cases: growth of human tumour cells (NCI), 48 h
786-0 renal = system: 786-0 renal
A498 renal = system: A498 renal
A549 NSCLC = system: A549 NSCLC
ACHN renal = system: ACHN renal
BT-549 breast = system: BT-549 breast
CAKI-1 renal = system: CAKI-1 renal
CCRF-CEM leukemia = system: CCRF-CEM leukemia
COLO 205 colon = system: COLO 205 colon
DLD-1 colon = system: DLD-1 colon
DMS 114 small cell lung = system: DMS 114 small cell lung
DU-145 prostate = system: DU-145 prostate
EKVX NSCLC = system: EKVX NSCLC
HCC-2998 colon = system: HCC-2998 colon
HCT-116 colon = system: HCT-116 colon
HCT-15 colon = system: HCT-15 colon
HL-60(TB) leukemia = system: HL-60(TB) leukemia
HOP-18 NSCLC = system: HOP-18 NSCLC
HOP-62 NSCLC = system: HOP-62 NSCLC
HOP-92 NSCLC = system: HOP-92 NSCLC
HS 578T breast = system: HS 578T breast
HT29 colon = system: HT29 colon
IGROV1 ovarian = system: IGROV1 ovarian
K-562 leukemia = system: K-562 leukemia
KM12 colon = system: KM12 colon
KM20L2 colon = system: KM20L2 colon
LOX IMVI melanoma = system: LOX IMVI melanoma
LXFL 529 NSCLC = system: LXFL 529 NSCLC
M14 melanoma = system: M14 melanoma
M19-MEL melanoma = system: M19-MEL melanoma
MALME-3M melanoma = system: MALME-3M melanoma
MCF7 breast = system: MCF7 breast
MDA-MB-231 breast = system: MDA-MB-231 breast
MDA-MB-435 = system: MDA-MB-435
MDA-N = system: MDA-N
MOLT-4 leukemia = system: MOLT-4 leukemia
NCI-H226 lung = system: NCI-H226 lung
NCI-H23 lung = system: NCI-H23 lung
NCI-H460 lung = system: NCI-H460 lung
NCI-H522 lung = system: NCI-H522 lung
NCI/ADR-RES ovarian = system: NCI/ADR-RES ovarian
OVCAR-3 ovarian = system: OVCAR-3 ovarian
OVCAR-4 ovarian = system: OVCAR-4 ovarian
OVCAR-5 ovarian = system: OVCAR-5 ovarian
OVCAR-8 ovarian = system: OVCAR-8 ovarian
PC-3 prostate = system: PC-3 prostate
RPMI-8226 leukemia = system: RPMI-8226 leukemia
RXF 393 renal = system: RXF 393 renal
RXF-631 renal = system: RXF-631 renal
SF-268 CNS = system: SF-268 CNS
SF-295 CNS = system: SF-295 CNS
SF-539 CNS = system: SF-539 CNS
SK-MEL-2 melanoma = system: SK-MEL-2 melanoma
SK-MEL-28 melanoma = system: SK-MEL-28 melanoma
SK-MEL-5 melanoma = system: SK-MEL-5 melanoma
SK-OV-3 ovarian = system: SK-OV-3 ovarian
SN12C renal = system: SN12C renal
SNB-19 CNS = system: SNB-19 CNS
SNB-75 CNS = system: SNB-75 CNS
SNB-78 CNS = system: SNB-78 CNS
SR leukemia = system: SR leukemia
SW-620 colon = system: SW-620 colon
TK-10 renal = system: TK-10 renal
U251 CNS = system: U251 CNS
UACC-257 melanoma = system: UACC-257 melanoma
UACC-62 melanoma = system: UACC-62 melanoma
UO-31 renal = system: UO-31 renal
XF 498 CNS = system: XF 498 CNS

## CC(C)=C1CCC(CN2CCOCC2)C1=O (configuration not stated)
786-0 renal
  TGI: 11.2 µM
A498 renal
  TGI: 52.3 µM
A549 NSCLC
  TGI: 43.1 µM
ACHN renal
  TGI: 23 µM
BT-549 breast
  TGI: 31.8 µM
CAKI-1 renal
  TGI: 0.908 µM
CCRF-CEM leukemia
  TGI: 7.9 µM
COLO 205 colon
  TGI: 16.9 µM
DLD-1 colon
  TGI: 10.8 µM
DMS 114 small cell lung
  TGI: 25 µM
DU-145 prostate
  TGI: 30.4 µM
EKVX NSCLC
  TGI: 34.5 µM
HCC-2998 colon
  TGI: 29.3 µM
HCT-116 colon
  TGI: 15.8 µM
HCT-15 colon
  TGI: 22 µM
HL-60(TB) leukemia
  TGI: 14 µM
HOP-18 NSCLC
  TGI: 23.8 µM
HOP-62 NSCLC
  TGI: > 93.5 µM
HOP-92 NSCLC
  TGI: 8.81 µM
HS 578T breast
  TGI: > 100 µM
HT29 colon
  TGI: 20.4 µM
IGROV1 ovarian
  TGI: 39.2 µM
K-562 leukemia
  TGI: 6.33 µM
KM12 colon
  TGI: > 51.4 µM
KM20L2 colon
  TGI: 31.4 µM
LOX IMVI melanoma
  TGI: 41.9 µM
LXFL 529 NSCLC
  TGI: 6.25 µM
M14 melanoma
  TGI: 14.6 µM
M19-MEL melanoma
  TGI: > 58.9 µM
MALME-3M melanoma
  TGI: 7 µM
MCF7 breast
  TGI: 22.5 µM
MDA-MB-231 breast
  TGI: 31.5 µM
MDA-MB-435
  TGI: 29.4 µM
MDA-N
  TGI: 35.1 µM
MOLT-4 leukemia
  TGI: 5.54 µM
NCI-H226 lung
  TGI: 46.1 µM
NCI-H23 lung
  TGI: 36.7 µM
NCI-H460 lung
  TGI: 59 µM
NCI-H522 lung
  TGI: 0.163 µM
NCI/ADR-RES ovarian
  TGI: 40.8 µM
OVCAR-3 ovarian
  TGI: 18.4 µM
OVCAR-4 ovarian
  TGI: 15.6 µM
OVCAR-5 ovarian
  TGI: 32.5 µM
OVCAR-8 ovarian
  TGI: 27.8 µM
PC-3 prostate
  TGI: 34.1 µM
RPMI-8226 leukemia
  TGI: 12.5 µM
RXF 393 renal
  TGI: 5.47 µM
RXF-631 renal
  TGI: > 31 µM
SF-268 CNS
  TGI: 45 µM
SF-295 CNS
  TGI: > 100 µM
SF-539 CNS
  TGI: 31.9 µM
SK-MEL-2 melanoma
  TGI: 36.6 µM
SK-MEL-28 melanoma
  TGI: 29.1 µM
SK-MEL-5 melanoma
  TGI: 30.7 µM
SK-OV-3 ovarian
  TGI: > 100 µM
SN12C renal
  TGI: 16.7 µM
SNB-19 CNS
  TGI: > 91.9 µM
SNB-75 CNS
  TGI: 18 µM
SNB-78 CNS
  TGI: 30.3 µM
SR leukemia
  TGI: 11.2 µM
SW-620 colon
  TGI: 4.26 µM
TK-10 renal
  TGI: 19 µM
U251 CNS
  TGI: 48.9 µM
UACC-257 melanoma
  TGI: 32.5 µM
UACC-62 melanoma
  TGI: 33 µM
UO-31 renal
  TGI: 32.6 µM
XF 498 CNS
  TGI: 26.4 µM
